Data set [1] is described as follows: Study on pharmacokinetics in mice. It is filed as in vivo, CD-1 mice. The following applies: mouse, plasma, CD-1 male mice, 1 mg/kg single intravenous injection. On the procedure: CD-1 male mice aged 7 to 10 weeks were selected and treated by intravenous administration at the dose of 1 mg/kg. The mice were fasted for at least 12 hours before the administration, and resumed feeding 4 hours after the administration. The mice were free to drink during the entire experiment.
On the day of the experiment, the animals in the intravenous group were administered with corresponding compound by a single injection via tail vein with an administration volume of 5 mL/kg. The animals were weighed before the administration, and the administration volume was calculated based on the body weight. The sample collection time was: 0.083, 0.25, 0.5, 1, 2, 4, 8, and 24 h. Approximately 30 μL whole blood was collected through the saphenous vein at each time point to prepare plasma for high performance liquid chromatography-tandem mass spectrometry (LC-MS/MS) to determine the concentration.
All animals were subjected to euthanasia under CO2 anesthesia after the PK samples at the last time point were collected. The non-compartmental model of the pharmacokinetic software WinNonlin™ Version 6.3 (Pharsight, Mountain View, CA) was used to process the data of plasma concentration, and the linear log-trapezoidal method was used to calculate the pharmacokinetic parameters.

Data set [2] deals with Klebsiella pneumoniae ATCC-BAA-1705. Nature of the data set: Drug efficacy in mice (mouse pneumonia model). The data set is classed as in vivo. The note with it: CD-1 mice, read at 24 h, FIG. 2. How it is done: 21 CD-1 mice were divided into 7 cages, 3 mice per cage, and were injected intraperitoneally with the immunosuppressant cyclophosphamide (150 mpk) on the 4th day.
On the first day, 7 cages of mice were injected intraperitoneally again with the immunosuppressant cyclophosphamide (100 mpk). The strain Kpn ATCC-BAA-1705 (Klebsiella pneumoniae ATCC-BAA-1705) was recovered on a MHA plate. The recovered colonies were picked and dissolved in saline to prepare Kpn ATCC-BAA-1705 bacterial solution with a concentration of 4.00E+08 CFU/mL for later use in mouse lung infection. The amount of bacterial solution infected in the lung of experimental mice was 50 μL/mouse, that is, the inoculation amount was 2.00E+07 CFU/mouse. At 2 h and 24 h infection, the lung tissue of the mice in control group was taken and placed in 5 mL saline, homogenized, and dotted on a plate with gradient dilution.
The specific administration of mice was as follows: • (1) 2 h after infection: At the end of 2 h after infection, the lung tissue of the mice in the first cage was taken and placed in 5 mL saline, homogenized, and dotted on a plate with gradient dilution, two duplications for each mouse. The amount of bacteria loaded in the lung tissue of the mouse was counted. Mice in the third and fourth cages were injected respectively with 30 mpk and 10 mpk compound Plazomicin subcutaneously, mice in the fifth and sixth cages were injected respectively with 30 mpk and 10 mpk compound subcutaneously, and mice in the seventh cage were injected with 100 mpk meropenem subcutaneously. • (2) 10 h after infection: Mice in the third and fourth cages were injected respectively with 30 mpk and 10 mpk plazomicin subcutaneously, mice in the fifth and sixth cages were injected respectively with 30 mpk and 10 mpk compound 1 subcutaneously, and mice in the seventh cage were injected with 100 mpk meropenem subcutaneously. At the end of 24 h infection, the lung tissue of the mice in the second to seventh cages was taken and placed in 5 mL saline, homogenized, and dotted on a plate with gradient dilution, two duplications for each mouse. The amount of bacteria carried in the lung tissue of the mouse was counted, and the experimental results were summarized and shown in FIG. 2.

The test system of a further data set is cochlear hair cells. The data set can be described thus: Auditory safety: hair cell staining and counting on the basilar membrane of the cochlea. It is filed as in vivo, guinea pigs. On the procedure:
Healthy adult guinea pigs (150-250 g) were employed as the research objects, and were randomly divided into saline control group, gentamicin group, compound Plazomicin group and Compound 1 group, with 8 animals in each group. Subcutaneous administration is used, and the following assays were carried out during and after the administration for 14 consecutive days: • 1. To analyze the effects of different drugs on the auditory function of guinea pigs, the compound action potential (CAP) of animals was recorded on the 14th day (29th day, i.e., 4 weeks) after administration. The results obtained were analyzed and the changes of the threshold shift, amplitude, latency and other indicators among different treatment groups were compared. • 2. After the different groups of animals were processed and the auditory function data thereof were collected, the cochlea of the animals was taken out for fixation and staining. Surface preparation of basilar membrane of the cochlea on one side was performed to count the loss of hair cells so as to make a cochlea map, and the cochlea on the other side was decalcified and frozen sectioned. The density of spiral ganglion neurons was counted and compared among groups. Research Results: 1. Administration Method and Treatment
Gentamicin from Dalian Meilun Biotechnology Co., Ltd., and Plazomicin and Compound 1 from WuXi AppTec (WuHan) Co., Ltd. are used, the solution of which were prepared just before use each time by using saline for dissolution to the concentration of 50 mg/mL, and the injection dose was 100 mg/kg body weight. Method: subcutaneous injection, and confirmation of no liquid leakage after each injection.
In order to compare the effects of different drugs on hair cells, hair cell staining and counting on the whole basilar membrane of the cochlea are performed. […] The Plazomicin group had 11.2-28.1% loss of outer hair cells in the high frequency (70-100% from the apical turn) and 16.7-24.2% loss of the outer hair cells at the beginning of the apical turn (10-20%). However, in the Compound 1 group, the loss of outer hair cells only occurred in the low-frequency region (from the top turn −40%), in which the loss rate of outer hair cells was about 2.5-11%, and the outer hair cells were relatively intact in the high frequency area (see FIG. 6 B).

For `CN[C@@H]1[C@@H](O)[C@@H](O[C@@H]2[C@@H](O)[C@H](O[C@H]3OC(CNCCOCCONC(=N)N)=CC[C@H]3N)[C@@H](N)C[C@H]2NC(=O)[C@@H](O)CCN)OC[C@]1(C)O` [Compound 1], the AUC in data set [1] (read-out: Area Under the Curve AUC) was 1.92 µM·h. In data set [1] (read-out: Clearance Rate Cl), the clearance was 15.1 mL/min/kg. The half-life in data set [1] (read-out: Half-Life T1/2 (converted)) is 23.8 min. Besides, the Cmax in data set [1] (read-out: Maximum Concentration Cmax) amounted to 7.09 µM. Further, in data set [1] (read-out: Volume of Distribution Vd), the Vd worked out at 0.369 L/kg. Moreover, the “in vivo activity in lung infection model (bacteria in lung tissue)” value in data set [2] (10 mpk and 30 mpk subcutaneously 2 h and 10 h after infection) is on record as “good in vivo activity”. Besides, the “efficacy at a dose of 10 mpk in lung infection model” value in data set [2] (10 mpk subcutaneously 2 h and 10 h after infection) was “equivalent to that of Plazomicin at a dose of 30 mpk”. The “efficacy compared with Plazomicin in lung infection model” value in data set [2] (subcutaneously 2 h and 10 h after infection) was “better than that of Plazomicin”. Further, in the data set on cochlear hair cells (guinea pig, in vivo, 29 day), the “loss rate of outer hair cells” value is reported as 2.5-11%. Also, the “damage to inner hair cells (overall)” value in the data set on cochlear hair cells (guinea pig, in vivo, sc, 100 mg/kg) was “almost undamaged”. The “hair cell toxicity (overall)” value in the data set with cochlear hair cells (guinea pigs, 100 mg/kg subcutaneous 14 days) is “significantly lower than that of the Gentamicin and the Plazomicin”.

Broadly, the AUC is concentration integrated over time. Usually clearance stands for the rate of elimination divided by the concentration. In general, Vd refers to the apparent volume that relates the amount in the body to the concentration in plasma or blood.

Values taken from patent publication US12338263B2, “Antibacterial aminoglycoside derivatives” (priority 2019, dated 2025).
